From patent US5480908A, “β3 -adrenergic agents benzodioxole dicarboxylates and their use in pharmaceutical compositions” (American Cyanamid Company, priority 1993, dated 1996)
Structures can show the parent of a compound that is named as a salt.

Legend:
β3 -adrenergic receptor = target: T1, β3 -adrenergic receptor (Rattus norvegicus, UniProt P26255); experiment: Lipolysis (β3-effect): stimulation of adipocyte lipolysis, glycerol release; format: cell-based; settings: rat epididymal adipocytes, 30 minutes, 37° C.; concentration giving 50% of the maximum rate of lipolysis of that compound
T1 construct: Rat epididymal fat pads are excised and placed in 0.9% saline; from tissue; host or cells: rat epididymal fat pads, collagenase-isolated adipocytes
Procedure: (§1) Selectivity of a compound is determined using the following procedures.
The β3 -effect of the compounds is determined by their ability to stimulate adipocyte lipolysis. Rat epididymal fat pads are excised and placed in 0.9% saline. Four grams of tissue is transferred to a flask with 20 ml of aerated KrebsHenseleit bicarbonate (KHB) buffer containing 3% fatty acid-free bovine serum albumin to which 75 mg of crude bacterial collagenase (Worthington) has been added. The tissue is incubated for about 45 minutes at 37° C. with gentle shaking. The cells are then washed three times with two volumes of KHB buffer, filtered through two layers of gauze, and brought to a final volume of 80 ml with KHB buffer. One-ml-aliquots of the cell suspension is added to plastic test tubes containing the appropriate additions of vehicle or compound. The cells are gassed for 1 minute with 95% O2 -5% CO2, capped, and incubated at 37° C. with continuous shaking for a total of 30 minutes. The reaction is stopped by adding 0.1 ml of 30 % perchloric acid and 0.1 ml of chloroform. […] The amount of glycerol generated from the hydrolysis of endogenous triglycerides is determined in a coupled-enzyme spectrophotometric assay. […] The amount of NADH generated, which is proportional to the amount of glycerol, is determined by the increase in absorbance at 340 nm. […]

β1 -adrenergic receptor [1] = target: T2, β1 -adrenergic receptor (Rattus norvegicus, UniProt P18090); experiment: Heart Binding (β1): binding assay with membranes from rat heart; settings: rat heart membranes, [^125 I]iodo-cyanopindolol, 1 hour
T2 construct: membranes from rat heart; from tissue; host or cells: rat heart membranes
Procedure: as §1
(§2) Binding assays for β1 -effect are carried out by the use of membranes from rat heart, and β2 -effect by the use of membranes from rat lung by the method described in Neve, et. al., J. Pharmacol. Exp. Ther., 1985, 235, 657-664 with the following exceptions:
(§3) 1. the incubation volume is 0.5 ml,
(§4) 2. the incubation time is 1 hour,
(§5) 3. the radioligand is [^125 I]iodo-cyanopindolol,
(§6) 4. (--) - isoproterenol (50 μM) is used to define […], and
(§7) 5. the filters are washed at 4° C.

β1 -adrenergic receptor [2] = experiment: as above; settings: β3 lipolysis vs β1 heart binding
Procedure: as §1, §2, §3, §4, §5, §6, §7

β2 [3] = target: T3, β2 (Rattus norvegicus, UniProt P10608); experiment: Lung Binding (β2): binding assay with membranes from rat lung; settings: rat lung membranes, [^125 I]iodo-cyanopindolol, 1 hour
T3 construct: membranes from rat lung; from tissue; host or cells: rat lung membranes
Procedure: as §1, §2, §3, §4, §5, §6, §7

β2 [4] = experiment: as above; settings: printed β3; Table 1 indicates β2 (lung binding)
Procedure: as §1, §2, §3, §4, §5, §6, §7

T2 sequence (P18090 whole entry): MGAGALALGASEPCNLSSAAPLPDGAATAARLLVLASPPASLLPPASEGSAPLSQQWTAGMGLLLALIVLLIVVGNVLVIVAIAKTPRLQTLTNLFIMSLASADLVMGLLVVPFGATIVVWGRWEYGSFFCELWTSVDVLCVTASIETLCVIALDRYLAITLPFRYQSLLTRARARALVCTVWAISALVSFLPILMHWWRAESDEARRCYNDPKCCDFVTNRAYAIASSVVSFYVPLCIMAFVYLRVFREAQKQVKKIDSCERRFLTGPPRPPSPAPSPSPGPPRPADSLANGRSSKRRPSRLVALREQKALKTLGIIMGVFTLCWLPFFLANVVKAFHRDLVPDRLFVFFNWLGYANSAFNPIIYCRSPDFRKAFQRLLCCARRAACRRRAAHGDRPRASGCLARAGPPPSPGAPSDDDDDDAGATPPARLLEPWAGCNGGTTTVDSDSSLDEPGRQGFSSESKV
T3 sequence (P10608 whole entry): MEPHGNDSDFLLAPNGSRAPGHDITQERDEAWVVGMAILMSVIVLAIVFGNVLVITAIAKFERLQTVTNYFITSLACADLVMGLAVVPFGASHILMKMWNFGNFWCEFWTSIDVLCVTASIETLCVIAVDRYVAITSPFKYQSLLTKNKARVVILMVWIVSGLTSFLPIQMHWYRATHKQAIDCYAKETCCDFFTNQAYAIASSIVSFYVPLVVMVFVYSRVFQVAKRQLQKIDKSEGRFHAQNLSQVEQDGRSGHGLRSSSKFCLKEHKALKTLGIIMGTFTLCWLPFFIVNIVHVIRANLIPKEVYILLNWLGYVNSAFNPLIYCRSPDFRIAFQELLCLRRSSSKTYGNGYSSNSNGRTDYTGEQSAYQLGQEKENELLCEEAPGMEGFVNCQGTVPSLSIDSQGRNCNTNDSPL
T1 sequence (P26255 whole entry): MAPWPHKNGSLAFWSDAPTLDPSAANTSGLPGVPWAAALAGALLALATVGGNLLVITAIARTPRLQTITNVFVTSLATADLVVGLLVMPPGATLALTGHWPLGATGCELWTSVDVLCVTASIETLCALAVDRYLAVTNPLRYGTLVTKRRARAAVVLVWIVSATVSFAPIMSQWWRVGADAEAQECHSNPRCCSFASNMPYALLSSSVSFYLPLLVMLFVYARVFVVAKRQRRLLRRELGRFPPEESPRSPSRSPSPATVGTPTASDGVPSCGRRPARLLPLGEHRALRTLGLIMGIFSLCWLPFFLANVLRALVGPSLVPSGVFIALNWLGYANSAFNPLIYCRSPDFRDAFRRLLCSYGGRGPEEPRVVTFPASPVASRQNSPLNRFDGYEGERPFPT

`C[C@H](Cc1ccc2c(c1)OC(C(=O)O)(C(=O)O)O2)NCC(O)COc1cccc2ccccc12` (mixture of isomers) [Example 1, (R,R) and (S,R)-5-[2-[[2-Hydroxy-3-(1-naphthalenyloxy)propyllamino]propyl-1,3-benzodioxole-2,2-dicarboxylic acid, disodium salt] was tested, and the EC50 (β3 -adrenergic receptor) was 264 nM, the IC50 (β1 -adrenergic receptor [1]) was 1520 nM and the “selectivity for the β3 -adrenergic receptor over the β1 -adrenergic receptor” value (β1 -adrenergic receptor [2]) was “shows selectivity”. The IC50 (β2 [3]) was 360 nM and the “selectivity when compared to the β3 -receptor” value (β2 [4]) was “not selective”.
